“Also recorded” adds a separate entry of the source. Structures can show the parent of a compound that is named as a salt.
How the values were obtained:
[1] = tested on: mice; experiment: Motility reduced by hypoxic aggression; type: in vivo, mouse; conditions: i.p.
Protocol: Half an hour after they have received CRL 41 153, the mice (10 per dose, 20 control animals) are subjected to acute hypobaric anoxia [pressure reduction of 600 mm Hg (i.e. about 8×10^4 Pa) in 90 seconds; release of vacuum in 45 seconds] and are then placed in an actimeter, where their motility is recorded for 10 minutes.

[2] = tested on: mice; experiment: Interaction with apomorphine in mice; type: in vivo, mouse; conditions: i.p.
Protocol: Groups of 6 mice receive CRL 41 153 0.5 hour before the subcutaneous injection of 1 or 16 mg/kg of apomorphine.

[3] = tested on: mice; experiment: Interaction with reserpine; type: in vivo, mouse; conditions: i.p.
Protocol: Four hours after the intraperitoneal injection of 2.5 mg/kg of reserpine, groups of 6 mice receive CRL 41 153.

[4] = tested on: rats; experiment: Interaction with apomorphine in rats; type: in vivo, rat; conditions: i.p.
Protocol: CRL 41 153 is administered to groups of 6 rats 0.5 hour before the subcutaneous injection of 0.5 mg/kg of apomorphine.

[5] = tested on: gravid White New Zealand female rabbits; experiment: Teratogenicity in gravid White New Zealand rabbits; type: in vivo, rabbit; conditions: day 5 to day 18 of gestation; for Affected foetuses, %: normal limit 1.5%
Method in brief: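 Fetuses harvested by cesarean on gestation day 29 were scored for number and for any malformation (limb blockade, anury, tail or skull defects, exencephaly).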

[6] = tested on: mice; experiment: Interaction with barbital; type: in vivo, mouse; conditions: i.p., barbital 220 mg/kg
Protocol: Half an hour after the administration of CRL 41 153, groups of 10 mice receive an intraperitoneal injection of barbital (220 mg/kg).

[7] = tested on: mice; experiment: Spontaneous motility; type: in vivo, mouse; conditions: i.p.
Protocol: 0.5 hour after they have received CRL 41 153, the mice (6 per dose, 12 control animals) are placed in an actimeter, where their motility is recorded for 30 minutes.

[8] = tested on: mice; experiment: Motility reduced by habituation to the enclosure; type: in vivo, mouse; conditions: i.p.
Protocol: After they have stayed In the actimeters for 18 hours, (he mice (6 per dose, 12 control animals) receive CRL 41 153. They are immediately returned to their respective enclosures and, half an hour later, their motility is recorded for 30 minutes.

[9] = tested on: mice; experiment: Four plate test, traction and electric shock; type: in vivo, mouse; conditions: i.p.
Protocol: The test is performed on groups of 10 mice 30 minutes after the administration of CRL 41 153.

[10] = tested on: mice; experiment: Behavioral despair; type: in vivo, mouse; conditions: forcibly immersed mice, i.p.
Description: Half an hour after they have received CRL 41 153, groups of 6 mice are placed in a beaker filled with water to a height of 6 cm. The total period of immobility between the 2nd and 6th minutes following immersion is noted.

[11] = tested on: CNS; experiment: Complementary tests by oral (gastric) administration; type: in vivo; conditions: gastric vs i.p.
[12] = tested on: mice; experiment: Overall behavior and reactivities in mice; type: in vivo, mouse; conditions: dose not stated
Protocol: (§1) In the neuropsychopharmacological study which follows, a solution of CRL 41 153 in distilled water (pH 1.5) was administered intraperitoneally in a volume of 20 ml/kg to male mice and 5 ml/kg to male rats.
(§2) Groups of three animals are observed before and then 0.25 hour, 0.50 hour, 1 hour, 2 hours, 3 hours and 24 hours after the administration of CRL 41 153.

[13] = tested on: rats; experiment: Interaction with amphetamine; type: in vivo, rat; conditions: i.p.
Protocol: Amphetamine (2 mg/kg) is injected intraperitoneally into groups of 6 rats 30 minutes after the administration of CRL 41 153. […] 4 mg/kg and 16 mg/kg, CRL 41 153 potentiates the intensity and duration of the stereotypies induced by amphetamine.

[14] = tested on: rats; experiment: Overall behavior and reactivities in rats; type: in vivo, rat; conditions: dose not stated
Protocol: as §1, §2

[15] = tested on: mice; experiment: Interaction with oxotremorine; type: in vivo, mouse; conditions: i.p.
Protocol: CRL 41 153 is administered to groups of 6 mice 0.5 hour before the intraperitoneal injection of 0.5 mg/kg of oxotremorine.

[16] = tested on: nigrostriatal dopaminergic system; experiment: Interaction with alpha-methyltyrosine on stereotypies (difference from amphetamine); conditions: α-methyltyrosine (catecholamine synthesis blocked)
[17] = tested on: CNS; experiment: Neuropsychopharmacological profile as a whole; type: in vivo, mice and rats; conditions: for Peripheral α-adrenergic signs (mydriasis, salivation, lacrimation, exophthalmos): species and dose not stated
Protocol: as §1

[18] = tested on: mice; experiment: Particular toxicity in grouped mice; conditions: mice
Protocol: The number of dead animals is noted after 1 hour, 2 hours, 3 hours, 4 hours and 24 hours.

[19] = tested on: dogs; experiment: Cardiovascular study in anesthetized dogs; type: in vivo, dog
Method in brief: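 Nembutal-anaesthetized dogs (~14 kg) given CRL 41 194 (n=2) or CRL 41 221 (n=4) intraduodenally at successive 0.1, 0.5, 1, 2.5, 5 and 10 mg/kg doses. Blood pressure, heart rate, femoral and vertebral flow, rectal temperature measured; skin colour observed, plus bile colour (CRL 41 194).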

[20] = Acute toxicity by intraperitoneal administration; type: in vivo, mouse; conditions: mouse, in vivo, ip; male mice
Protocol: as §1

[21] = tested on: humans; experiment: Clinical study: vasodilator; type: in vivo, human
Description: In the treatment of diseases associated with the blood circulation through the vessels.

[22] = pH of solutions in distilled water; type: physicochemical
Protocol: The neuropsychopharmacological study was undertaken according to the procedures described above for CRL 41 153, CRL 41 213 being adminstered intraperitoneally, in solution in distilled water, in a volume of 20 ml/kg to male mice and a volume of 5 ml/kg to male rats, and the pH of the injected solution varying with the concentration of CRL 41 213 according to the data given in Table II below.

[23] = anesthetized dogs, intraduodenal

CC(NC(C)(C)C)C(=O)c1ccc(N)cc1 (centres unmarked) [CRL 41 178]
Motor recovery of mice after hypobaric hypoxia [1]: improvement in the motor recovery of mice whose activity has been depressed following hypobaric hypoxia | Effect on hypothermia induced by apomorphine [2]: antagonism of the hypothermia | Effect on hypothermia induced by reserpine [3]: antagonism of the hypothermia | Effect on ptosis induced by reserpine [3]: slight antagonism of the ptosis induced by reserpine | Effect on stereotypies induced by apomorphine [4]: potentiation of the effects of apomorphine and amphetamine in rats | Affected foetuses, number ([5]; 5 mg/kg daily): 1 | Total foetuses (live) ([5]; 5 mg/kg daily): 90 | Affected foetuses, % ([5]; 5 mg/kg daily): 1.11% | Affected foetuses, number ([5]; 10 mg/kg daily): 1 | Total foetuses (live) ([5]; 10 mg/kg daily): 83 | Affected foetuses, % ([5]; 10 mg/kg daily): 1.20% | Affected foetuses, number ([5]; 50 mg/kg daily): 1 | Total foetuses (live) ([5]; 50 mg/kg daily): 92 | Affected foetuses, % ([5]; 50 mg/kg daily): 1.10% | Duration of the sleep induced by barbital [6]: antagonism of the sleep induced by barbital | Spontaneous motor activity [7]: increase in the motor activity | Motor activity of mice accustomed to their enclosure [8]: resumption in the activity of mice accustomed to their enclosure | Effect on convulsant effects of electric shock [9]: at high doses, antagonism of the convulsant effects of electric shock | Period of immobility due to despair [10]: reduction in the period of immobility | Action on gastric (oral) administration compared with intraperitoneal [11]: same types of action as after intraperitoneal administration; also recorded: the antidepressant effects are apparently developed better by oral administration than by intraperitoneal administration | Overall behavior: observed effects (summary) [12]: excitation and hyperreactivity in mice and rats | Effect on stereotypies induced by amphetamine [13]: potentiation of the effects of apomorphine and amphetamine in rats | Overall behavior: observed effects (summary) [14]: excitation and hyperreactivity in mice and rats | Stereotype movements (summary) [14]: presence of stereotype movements | Effect on hypothermic action of oxotremorine [15]: antagonism of the hypothermia | Effect of alpha-methyltyrosine on the stereotypies induced by the substance [16]: differs from amphetamine in the mechanism of the effects which cause stereotypies | Anticonvulsant effects (overall) ([17]; conclusion of the tests): anticonvulsant effects | Antidepressant effects (overall) ([17]; conclusion of the tests): more modest antidepressant effects; also recorded: antidepressant component | Stimulant effects (overall) ([17]; conclusion of the tests): distinct stimulant effects; also recorded: behaves as a stimulant as from the weakest doses | α-adrenergic stimulant effects (overall) ([17]; conclusion of the tests): moderate α-adrenergic stimulant effects | Peripheral α-adrenergic signs (mydriasis, salivation, lacrimation, exophthalmos) [17]: mydriasis (with neither piloerection nor salivation) | Particular toxicity to grouped mice [18]: existence of a particular toxicity to grouped mice

CC(C(=O)c1ccc(N)cc1)N1CCCC1 (centres unmarked) [CRL 41 222, 1-(4-aminophenyl)-2-pyrrolidinopropanone dihydrochloride]
Motor recovery of mice after hypobaric hypoxia [1]: improvement in the motor recovery | Effect on hypothermia induced by apomorphine [2]: antagonism of the hypothermia | Effect on hypothermia induced by reserpine [3]: antagonism of the hypothermia | Effect on ptosis induced by reserpine [3]: antagonism of the ptosis induced by reserpine | Vasodilator (conclusion) [19]: vasodiating properties | Effect of propanolol or atenolol on the action of the product ([19]; anesthetized dogs): acts by stimulating the β-cardiac and vascular receptors | Effect on hypertension induced by norepinephrine ([19]; anesthetized dogs): moderately increases the hypertension induced by norepinephrine | Effects of isoprenaline (not further specified) ([19]; anesthetized dogs): without modifying the effects of isoprenaline | Rectal temperature ([19]; anesthetized dogs): The rectal temperature and skin temperature rise | Skin temperature ([19]; anesthetized dogs): The rectal temperature and skin temperature rise | Blood pressure [19, 23]: A hypotensive action appears at 20 mg/kg as a drop in the diastolic blood pressure | Femoral flow [19, 23]: substantial and regular increase in the femoral and vertebral flows | Heart rate [19, 23]: accompanied by tachycardia | Respiration [19, 23]: Respiratory stimulation is observed in all the animals | Vertebral flow [19, 23]: substantial and regular increase in the femoral and vertebral flows | LD50 [20]: 87 mg/kg | Effect on stereotypies induced by apomorphine [4]: potentiation of the stereotypies | Vasodilator in human clinical use [21]: good peripheral vasodilator at a daily dose of 2×10 mg | Affected foetuses, number ([5]; 5 mg/kg daily): 1 | Total foetuses (live) ([5]; 5 mg/kg daily): 85 | Affected foetuses, % ([5]; 5 mg/kg daily): 1.29% | Affected foetuses, number ([5]; 10 mg/kg daily): 0 | Total foetuses (live) ([5]; 10 mg/kg daily): 92 | Affected foetuses, % ([5]; 10 mg/kg daily): 0% | Duration of the sleep induced by barbital [6]: distinct antagonism of the sleep induced by barbital | Spontaneous motor activity [7]: an increase in the motor activity | Motor activity of mice accustomed to their enclosure [8]: resumption in the motor activity of mice accustomed to their enclosure | Period of immobility due to despair [10]: a reduction in the period of immobility | pH ([22]; 0.1 g/liter in distilled water): 5 | pH ([22]; 0.2 g/liter in distilled water): 4.5 | pH ([22]; 0.4 g/liter in distilled water): 4.0 | pH ([22]; 0.8 g/liter in distilled water): 3.5 | pH ([22]; 1.6 g/liter in distilled water): 3.0 | pH ([22]; 3.2 g/liter in distilled water): 2.5 | pH ([22]; 6.4 g/liter in distilled water): 2.0 | pH ([22]; 12.8 g/liter in distilled water): 1.5 | pH ([22]; ≤0.05 g/liter in distilled water): 5.5 | Overall behavior: observed effects (summary) [12]: excitation in mice and rats | Stereotype movements (summary) [12]: presence of stereotype movements | Effect on stereotypies induced by amphetamine [13]: potentiation of the stereotypies | Overall behavior: observed effects (summary) [14]: excitation in mice and rats | Stereotype movements (summary) [14]: presence of stereotype movements | Effect on hypothermic action of oxotremorine [15]: antagonism of the hypothermia | Effect on trembling induced by oxotremorine [15]: antagonism of the trembling induced by oxotremorine | Antidepressant effects (overall) ([17]; conclusion of the tests): possessing antidepressant, stimulant and arousing properties | Stimulant effects (overall) ([17]; conclusion of the tests): possessing antidepressant, stimulant and arousing properties | α-adrenergic stimulant effects (overall) ([17]; conclusion of the tests): peripheral α-adrenergic stimulant effects | Peripheral α-adrenergic signs (mydriasis, salivation, lacrimation, exophthalmos) ([17]; dihydrochloride): mydriasis; also recorded: salivation and lacrimation
